Test results as given in patent US20150093333A1, “COMPOSITIONS, METHODS AND USES FOR PEPTIDES IN DIAGNOSIS, PROGRESSION AND TREATMENT OF CANCERS” (THE REGENTS OF THE UNIVERSITY OF COLORADO, body corporate, priority 2003, published 2015).
Like-named read-outs stand apart in the source and are kept apart here.

Columns and labels:
exosomes (Ex) = experiment: Fluorescence enhancement of BK derived peptides with exosomes from rat blood plasma; type: binding; settings: Ex treated peptide vs untreated
Text: In support of the observations with synthetic vesicles to translate to naturally-occurring extracellular vesicles, exosomes (Ex) purified from blood plasma of rats underwent inescapable tailshock stress as an acceptable model of exosome release. Ex have diameters of 40-100 nm, therefore providing a good biological model for testing the curvature-sensing peptides. […] The total number of Ex in the sample was counted by nanoparticle tracking analysis to ensure that is in the same order of magnitude as the 500 μM lipids in the synthetic models.

lipid vesicles = experiment: Fluorescence anisotropy titration of BK derived peptides with lipid vesicles; type: binding; settings: read-out: Dissociation constant (Kd)
Experimental: In another method, synthetic lipid vesicles of various sizes were prepared to model different membrane curvatures for testing interactions. Three compositions of vesicles were designed to closely resemble natural biological membranes named lipid model (LM) 1, 2, and 3. These vesicles were prepared by extrusion under inert, pressure-controlled method through polycarbonate membranes with pore sizes of 400, 80, and 30 nm to cover a wide range of curvatures. Since curvature is defined as the inverse of radius, the smallest size represents vesicles with the highest curvature. […] These vesicles were further characterized by transmission electron microscopy (TEM) to verify the sizes found by DLS.
In other exemplary methods, binding strength of the interactions were assessed. Fluorescence anisotropy (FA) assay was adopted to measure the binding constants. The peptide partitions between the hydrophobic lipid bilayer and the aqueous solvent and the dissociation constant (Kd) calculated as the reciprocal of the molar partition coefficient. A constant concentration of peptide was titrated with increasing concentration of lipid vesicles and the FA due to the change in the rotational time of the small peptide when it binds to the relatively bigger lipid vesicles was measured and plotted versus the total lipid concentration. […] Fluorescence anisotropy titration was performed to obtain the Kd values. Lower values indicate stronger binding. LM=liposome model. [Peptide]=1 μM; [Lipid titrant]=2 mM.

For “monomeric Bradykinin derivative: GRPPGFSPFR with ε-azidolysine and NBD-X fluorophore at the N-terminus [Peptide 1]”, the fluorescence intensity (exosomes (Ex)) was 3.09±0.08 RFU, the Kd (lipid vesicles; LM 1 V58) was 996 ± 230 µM and the Kd (lipid vesicles; LM 1 V116) was 940 ± 160 µM. The Kd (lipid vesicles; LM 1 V454) was 7.14 µM, the Kd (lipid vesicles; LM 2 V116) was 585 ± 62 µM and the Kd (lipid vesicles; LM 2 V454) was greater than 1000 µM. For the same substance, the Kd (lipid vesicles; LM 2 V) was 488 ± 72 µM, the Kd (lipid vesicles; LM 3 V58) was 407 ± 56 µM and the Kd (lipid vesicles; LM 3 V116) was 893 ± 101 µM. For the same substance, the Kd (lipid vesicles; LM 3 V454) was 902 ± 141 µM.
